Experimental data: PubChem BioAssay (NCI)
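GI50 is the concentration that inhibits growth by half. TGI: total growth inhibition.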

What was measured:
Experiment in all cases: NCI-60 cell line screen, 384-well format
786-0 renal = test system: 786-0 renal
A498 renal = test system: A498 renal
A549 NSCLC = test system: A549 NSCLC
BT-549 breast = test system: BT-549 breast
CAKI-1 renal = test system: CAKI-1 renal
COLO 205 colon = test system: COLO 205 colon
DU-145 prostate = test system: DU-145 prostate
EKVX NSCLC = test system: EKVX NSCLC
HCC-2998 colon = test system: HCC-2998 colon
HCT-15 colon = test system: HCT-15 colon
HL-60(TB) leukemia = test system: HL-60(TB) leukemia
HOP-62 NSCLC = test system: HOP-62 NSCLC
HOP-92 NSCLC = test system: HOP-92 NSCLC
HS 578T breast = test system: HS 578T breast
HT29 colon = test system: HT29 colon
IGROV1 ovarian = test system: IGROV1 ovarian
K-562 leukemia = test system: K-562 leukemia
LOX IMVI melanoma = test system: LOX IMVI melanoma
M14 melanoma = test system: M14 melanoma
MALME-3M melanoma = test system: MALME-3M melanoma
MCF7 breast = test system: MCF7 breast
MDA-MB-231 breast = test system: MDA-MB-231 breast
MDA-MB-468 breast = test system: MDA-MB-468 breast
MOLT-4 leukemia = test system: MOLT-4 leukemia
NCI-H23 lung = test system: NCI-H23 lung
NCI-H460 NSCLC = test system: NCI-H460 NSCLC
NCI-H522 lung = test system: NCI-H522 lung
NCI/ADR-RES ovarian = test system: NCI/ADR-RES ovarian
OVCAR-3 ovarian = test system: OVCAR-3 ovarian
OVCAR-4 ovarian = test system: OVCAR-4 ovarian
OVCAR-5 ovarian = test system: OVCAR-5 ovarian
OVCAR-8 ovarian = test system: OVCAR-8 ovarian
RXF 393 renal = test system: RXF 393 renal
SF-268 CNS = test system: SF-268 CNS
SF-539 CNS = test system: SF-539 CNS
SK-MEL-2 melanoma = test system: SK-MEL-2 melanoma
SK-MEL-28 melanoma = test system: SK-MEL-28 melanoma
SK-MEL-5 melanoma = test system: SK-MEL-5 melanoma
SK-OV-3 ovarian = test system: SK-OV-3 ovarian
SN12C renal = test system: SN12C renal
SNB-19 CNS = test system: SNB-19 CNS
SR leukemia = test system: SR leukemia
SW-620 colon = test system: SW-620 colon
T-47D breast = test system: T-47D breast
TK-10 renal = test system: TK-10 renal
U251 glioblastoma = test system: U251 glioblastoma
UO-31 renal = test system: UO-31 renal

C=CC(=O)N[C@H]1CCOC[C@H]1Nc1ncc2cc(-c3c(Cl)c(OC)cc(OC)c3Cl)ccc2n1
GI50 ([…]-0 renal): 16.5 µM
TGI (786-0 renal): 50.1 µM
GI50 (A498 renal): 10.6 µM
TGI (A498 renal): 40.2 µM
GI50 (A549 NSCLC): 17.3 µM
TGI (A549 NSCLC): 74.2 µM
GI50 (BT-549 breast): 4.77 µM
TGI (BT-549 breast): 19.5 µM
GI50 (CAKI-1 renal): 12 µM
TGI (CAKI-1 renal): 82.4 µM
GI50 (COLO 205 colon): 18.2 µM
TGI (COLO 205 colon): 46.1 µM
GI50 (DU-145 prostate): 27.4 µM
TGI (DU-145 prostate): > 100 µM
GI50 (EKVX NSCLC): 12.3 µM
TGI (EKVX NSCLC): 39.6 µM
GI50 (HCC-2998 colon): 16.2 µM
TGI (HCC-2998 colon): 32.5 µM
GI50 (HCT-15 colon): 11.4 µM
TGI (HCT-15 colon): 35.5 µM
GI50 (HL-60(TB) leukemia): 9.62 µM
TGI (HL-60(TB) leukemia): 22.7 µM
GI50 (HOP-62 NSCLC): 20.4 µM
TGI (HOP-62 NSCLC): 57.2 µM
GI50 (HOP-92 NSCLC): 7.37 µM
TGI (HOP-92 NSCLC): 28.2 µM
GI50 (HS 578T breast): 12 µM
TGI (HS 578T breast): 27.9 µM
GI50 (HT29 colon): 14 µM
TGI (HT29 colon): 96.2 µM
GI50 (IGROV1 ovarian): 17.9 µM
TGI (IGROV1 ovarian): 63.5 µM
GI50 (K-562 leukemia): 7.1 µM
TGI (K-562 leukemia): 26.9 µM
GI50 (LOX IMVI melanoma): 13 µM
TGI (LOX IMVI melanoma): 27.3 µM
GI50 (M14 melanoma): 16.8 µM
TGI (M14 melanoma): > 69.2 µM
GI50 (MALME-3M melanoma): > 53.7 µM
TGI (MALME-3M melanoma): > 100 µM
GI50 (MCF7 breast): 11.9 µM
TGI (MCF7 breast): 46.4 µM
GI50 (MDA-MB-231 breast): 9.96 µM
TGI (MDA-MB-231 breast): > 78.7 µM
GI50 (MDA-MB-468 breast): 3.37 µM
TGI (MDA-MB-468 breast): 13.9 µM
GI50 (MOLT-4 leukemia): 2.59 µM
TGI (MOLT-4 leukemia): 14.8 µM
GI50 (NCI-H23 lung): 16.9 µM
TGI (NCI-H23 lung): 63.9 µM
GI50 (NCI-H460 NSCLC): 11.8 µM
TGI (NCI-H460 NSCLC): 25.7 µM
GI50 (NCI-H522 lung): 13.9 µM
TGI (NCI-H522 lung): 32.2 µM
GI50 (NCI/ADR-RES ovarian): 12.9 µM
TGI (NCI/ADR-RES ovarian): 30.8 µM
GI50 (OVCAR-3 ovarian): 13.9 µM
TGI (OVCAR-3 ovarian): 34 µM
GI50 (OVCAR-4 ovarian): 14.9 µM
TGI (OVCAR-4 ovarian): 54.1 µM
GI50 (OVCAR-5 ovarian): 27.5 µM
TGI (OVCAR-5 ovarian): > 88.4 µM
GI50 (OVCAR-8 ovarian): 16 µM
TGI (OVCAR-8 ovarian): 35.1 µM
GI50 (RXF 393 renal): 8.65 µM
TGI (RXF 393 renal): 26.2 µM
GI50 (SF-268 CNS): 4.16 µM
TGI (SF-268 CNS): 23.9 µM
GI50 (SF-539 CNS): 13.5 µM
TGI (SF-539 CNS): 28.2 µM
GI50 (SK-MEL-2 melanoma): 15.9 µM
TGI (SK-MEL-2 melanoma): 30.4 µM
GI50 (SK-MEL-28 melanoma): 35.6 µM
TGI (SK-MEL-28 melanoma): > 100 µM
GI50 (SK-MEL-5 melanoma): 10.9 µM
TGI (SK-MEL-5 melanoma): 23.6 µM
GI50 (SK-OV-3 ovarian): 19.4 µM
TGI (SK-OV-3 ovarian): 63.4 µM
GI50 (SN12C renal): 15.4 µM
TGI (SN12C renal): 75 µM
GI50 (SNB-19 CNS): 19.2 µM
TGI (SNB-19 CNS): 55.7 µM
GI50 (SR leukemia): 5.39 µM
TGI (SR leukemia): 19 µM
GI50 (SW-620 colon): 19 µM
TGI (SW-620 colon): > 52.5 µM
GI50 (T-47D breast): 5.24 µM
TGI (T-47D breast): 23 µM
GI50 (TK-10 renal): 20.9 µM
TGI (TK-10 renal): > 95.6 µM
GI50 (U251 glioblastoma): 15 µM
TGI (U251 glioblastoma): 36.1 µM
GI50 (UO-31 renal): 23.3 µM
TGI (UO-31 renal): 98 µM

c1cn2cc(-c3ccc4cn[nH]c4c3)nc(Nc3ccc(N4CCOCC4)cc3)c2n1
GI50 ([…]-0 renal): 8.76 µM
TGI (786-0 renal): 21.1 µM
GI50 (A498 renal): 3.26 µM
TGI (A498 renal): 16.6 µM
GI50 (A549 NSCLC): 17.1 µM
TGI (A549 NSCLC): > 53.8 µM
GI50 (BT-549 breast): 11.2 µM
TGI (BT-549 breast): 23.5 µM
GI50 (CAKI-1 renal): 11.9 µM
TGI (CAKI-1 renal): 25.3 µM
GI50 (COLO 205 colon): 37.8 µM
TGI (COLO 205 colon): > 100 µM
GI50 (DU-145 prostate): 10 µM
TGI (DU-145 prostate): 22.7 µM
GI50 (EKVX NSCLC): 9.48 µM
TGI (EKVX NSCLC): 25.1 µM
GI50 (HCC-2998 colon): 17.5 µM
TGI (HCC-2998 colon): > 85.7 µM
GI50 (HCT-15 colon): 19.4 µM
TGI (HCT-15 colon): > 100 µM
GI50 (HL-60(TB) leukemia): > 100 µM
TGI (HL-60(TB) leukemia): > 100 µM
GI50 (HOP-62 NSCLC): 9.54 µM
TGI (HOP-62 NSCLC): 22.2 µM
GI50 (HOP-92 NSCLC): 5.8 µM
TGI (HOP-92 NSCLC): 19.1 µM
GI50 (HS 578T breast): 1.87 µM
TGI (HS 578T breast): 8.11 µM
GI50 (HT29 colon): 28.1 µM
TGI (HT29 colon): > 100 µM
GI50 (IGROV1 ovarian): 14.1 µM
TGI (IGROV1 ovarian): 37.9 µM
GI50 (K-562 leukemia): > 100 µM
TGI (K-562 leukemia): > 100 µM
GI50 (LOX IMVI melanoma): 15.4 µM
TGI (LOX IMVI melanoma): 36.6 µM
GI50 (M14 melanoma): 23.5 µM
TGI (M14 melanoma): 86.6 µM
GI50 (MALME-3M melanoma): 6.24 µM
TGI (MALME-3M melanoma): 19.4 µM
GI50 (MCF7 breast): 8.62 µM
TGI (MCF7 breast): 30.2 µM
GI50 (MDA-MB-231 breast): 10.1 µM
TGI (MDA-MB-231 breast): 21.9 µM
GI50 (MDA-MB-468 breast): 16.1 µM
TGI (MDA-MB-468 breast): 57.1 µM
GI50 (MOLT-4 leukemia): 48 µM
TGI (MOLT-4 leukemia): > 100 µM
GI50 (NCI-H23 lung): 10.8 µM
TGI (NCI-H23 lung): 25.7 µM
GI50 (NCI-H460 NSCLC): 11.1 µM
TGI (NCI-H460 NSCLC): 24.6 µM
GI50 (NCI-H522 lung): 3.46 µM
TGI (NCI-H522 lung): 12.8 µM
GI50 (NCI/ADR-RES ovarian): 11.7 µM
TGI (NCI/ADR-RES ovarian): 29.6 µM
GI50 (OVCAR-3 ovarian): 12.7 µM
TGI (OVCAR-3 ovarian): 28.3 µM
GI50 (OVCAR-4 ovarian): 6.52 µM
TGI (OVCAR-4 ovarian): 20 µM
GI50 (OVCAR-5 ovarian): 12.8 µM
TGI (OVCAR-5 ovarian): 30.3 µM
GI50 (OVCAR-8 ovarian): 4.82 µM
TGI (OVCAR-8 ovarian): 17.1 µM
GI50 (RXF 393 renal): 2.44 µM
TGI (RXF 393 renal): 13.3 µM
GI50 (SF-268 CNS): 4.45 µM
TGI (SF-268 CNS): 16.9 µM
GI50 (SF-539 CNS): 4.6 µM
TGI (SF-539 CNS): 16.5 µM
GI50 (SK-MEL-2 melanoma): 1.67 µM
TGI (SK-MEL-2 melanoma): 8.99 µM
GI50 (SK-MEL-28 melanoma): 12.4 µM
TGI (SK-MEL-28 melanoma): 29.6 µM
GI50 (SK-MEL-5 melanoma): 11.3 µM
TGI (SK-MEL-5 melanoma): 32.8 µM
GI50 (SK-OV-3 ovarian): 5.35 µM
TGI (SK-OV-3 ovarian): 19.3 µM
GI50 (SN12C renal): 10 µM
TGI (SN12C renal): 22.6 µM
GI50 (SNB-19 CNS): 8.81 µM
TGI (SNB-19 CNS): 21.4 µM
GI50 (SR leukemia): 5.01 µM
TGI (SR leukemia): 14.5 µM
GI50 (SW-620 colon): 33.1 µM
TGI (SW-620 colon): > 100 µM
GI50 (T-47D breast): 3.73 µM
TGI (T-47D breast): 21.2 µM
GI50 (TK-10 renal): 5.67 µM
TGI (TK-10 renal): 22 µM
GI50 (U251 glioblastoma): 9.72 µM
TGI (U251 glioblastoma): 25.4 µM
GI50 (UO-31 renal): 12.4 µM
TGI (UO-31 renal): 32 µM
